Test [1] deals with T1, yPFTase (Saccharomyces cerevisiae, UniProt P22007+P29703).
T1 sequence (P22007 1-431): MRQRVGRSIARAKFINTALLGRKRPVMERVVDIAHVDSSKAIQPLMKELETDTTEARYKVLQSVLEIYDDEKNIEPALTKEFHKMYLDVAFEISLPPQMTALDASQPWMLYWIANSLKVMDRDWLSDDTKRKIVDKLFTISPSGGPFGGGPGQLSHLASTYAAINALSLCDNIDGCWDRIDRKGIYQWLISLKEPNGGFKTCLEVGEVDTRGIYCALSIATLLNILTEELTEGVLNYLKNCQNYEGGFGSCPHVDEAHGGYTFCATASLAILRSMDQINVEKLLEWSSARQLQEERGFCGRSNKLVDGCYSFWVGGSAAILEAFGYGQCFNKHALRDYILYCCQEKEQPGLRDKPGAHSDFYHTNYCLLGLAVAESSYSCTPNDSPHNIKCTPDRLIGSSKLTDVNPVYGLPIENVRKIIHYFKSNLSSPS
T1 sequence (P29703 1-316 partner): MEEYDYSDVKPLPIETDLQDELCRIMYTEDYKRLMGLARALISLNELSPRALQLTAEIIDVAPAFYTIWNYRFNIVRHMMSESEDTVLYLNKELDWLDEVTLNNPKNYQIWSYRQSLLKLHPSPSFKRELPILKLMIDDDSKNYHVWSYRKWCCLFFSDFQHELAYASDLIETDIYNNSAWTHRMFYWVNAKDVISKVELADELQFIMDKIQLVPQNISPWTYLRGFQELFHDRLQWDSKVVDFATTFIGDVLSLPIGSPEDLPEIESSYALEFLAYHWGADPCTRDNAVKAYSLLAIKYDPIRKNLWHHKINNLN
The test is described as follows: Continuous fluorescence kinetic assay of dansylated Ds-GCa1a2X peptides. Type of test: biochemical. To be noted: greater with yPFTase, Table S4.

For test [2], the system named is CaPFTase. The description is as above. Type of test: biochemical, Candida albicans. To be noted: greater with CaPFTase, Table S4.

Where a SMILES comes first, the peptide text is derived from it. The star is where a group is joined. Dansyl = CN(C)c1cccc2c(S(=O)(=O)*)cccc12

On to Ds-GCVTN, for which the “kcat/KM of yPFTase compared with rPFTase” value in test [1] worked out at 11 fold.

On to `CC(C)[C@H](NC(=O)[C@@H](NC(=O)[C@@H](NC(=O)[C@H](CS)NC(=O)CNS(=O)(=O)c1cccc2c(N(C)C)cccc12)C(C)C)C(C)C)C(=O)O` [Ds-GCVVV] (Dansyl-GCVVV-OH), for which the “kcat/KM of CaPFTase compared with rPFTase” value in test [2] stood at 6.2 fold.
